In one assay the target is T1, human TLR7 (Homo sapiens, UniProt Q9NYK1).
T1 construct: host or cells: HEK-Blue cells
T1 sequence (Q9NYK1 27-1049): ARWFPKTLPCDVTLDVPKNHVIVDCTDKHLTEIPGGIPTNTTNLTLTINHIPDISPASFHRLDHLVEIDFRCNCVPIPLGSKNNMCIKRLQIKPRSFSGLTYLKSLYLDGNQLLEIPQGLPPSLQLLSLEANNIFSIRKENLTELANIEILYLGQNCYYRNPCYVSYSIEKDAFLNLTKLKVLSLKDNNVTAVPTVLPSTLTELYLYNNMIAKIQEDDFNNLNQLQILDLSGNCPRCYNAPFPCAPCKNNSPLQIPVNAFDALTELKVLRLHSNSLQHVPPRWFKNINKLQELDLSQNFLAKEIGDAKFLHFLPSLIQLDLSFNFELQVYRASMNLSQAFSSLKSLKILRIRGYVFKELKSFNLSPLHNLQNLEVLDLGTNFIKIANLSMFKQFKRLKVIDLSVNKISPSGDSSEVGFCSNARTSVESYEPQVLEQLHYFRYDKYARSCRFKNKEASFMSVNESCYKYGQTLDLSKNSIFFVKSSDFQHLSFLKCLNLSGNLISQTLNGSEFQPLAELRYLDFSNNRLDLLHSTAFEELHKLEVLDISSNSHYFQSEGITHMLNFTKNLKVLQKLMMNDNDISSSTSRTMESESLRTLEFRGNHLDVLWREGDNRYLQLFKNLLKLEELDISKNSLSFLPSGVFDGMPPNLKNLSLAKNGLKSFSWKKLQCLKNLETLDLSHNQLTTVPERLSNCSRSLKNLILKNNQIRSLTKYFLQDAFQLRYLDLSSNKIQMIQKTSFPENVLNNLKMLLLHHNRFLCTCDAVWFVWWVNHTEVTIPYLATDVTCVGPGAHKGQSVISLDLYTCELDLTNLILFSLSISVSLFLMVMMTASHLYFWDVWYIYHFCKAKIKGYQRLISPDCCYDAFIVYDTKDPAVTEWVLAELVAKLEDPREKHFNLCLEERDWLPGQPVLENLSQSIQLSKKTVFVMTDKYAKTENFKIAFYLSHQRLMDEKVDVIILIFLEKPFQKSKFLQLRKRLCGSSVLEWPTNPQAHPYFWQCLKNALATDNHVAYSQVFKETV
The assay is described as follows: TLR7 inhibition reporter assay (HEK-Blue cells, SEAP reporter). The format is cell-based. The note with it: HEK-Blue cells overexpressing human TLR7, stimulated with gardiquimod 7.5 μM, 22 hour incubation. Here is the method:
TLR7/8/9 Inhibition Reporter Assays
HEK-Blue™-cells (Invivogen) overexpressing human TLR7, TLR8 or TLR9 receptors were used for screening inhibitors of these receptors using an inducible SEAP (secreted embryonic alkaline phosphatase) reporter gene under the control of the IFN-β minimal promoter fused to five NF-κB and AP-1-binding sites. Briefly, cells are seeded into Greiner 384 well plates (15000 cells per well for TLR7, 20,000 for TLR8 and 25,000 for TLR9) and then treated with test compounds in DMSO to yield a final dose response concentration range of 0.05 nM-50 μM. After a 30 minute compound pre-treatment at room temperature, the cells are then stimulated with a TLR7 ligand (gardiquimod at a final concentration of 7.5 μM), TLR8 ligand (R848 at a final concentration of 15.9 μM) or TLR9 ligand (ODN2006 at a final concentration of 5 nM) to activate NF-κB and AP-1 which induce the production of SEAP. After a 22 hour incubation at 37° C., 5% CO2, SEAP levels are determined with the addition of HEK-Blue™ Detection reagent (Invivogen), a cell culture medium that allows for detection of SEAP, according to manufacturer's specifications. The percent inhibition is determined as the % reduction in the HEK-Blue signal present in wells treated with agonist plus DMSO alone compared to wells treated with a known inhibitor.

A further assay concerns the target T2, human TLR9 (Homo sapiens, UniProt Q9NR96).
T2 construct: host or cells: HEK-Blue cells
T2 sequence (Q9NR96 26-1032): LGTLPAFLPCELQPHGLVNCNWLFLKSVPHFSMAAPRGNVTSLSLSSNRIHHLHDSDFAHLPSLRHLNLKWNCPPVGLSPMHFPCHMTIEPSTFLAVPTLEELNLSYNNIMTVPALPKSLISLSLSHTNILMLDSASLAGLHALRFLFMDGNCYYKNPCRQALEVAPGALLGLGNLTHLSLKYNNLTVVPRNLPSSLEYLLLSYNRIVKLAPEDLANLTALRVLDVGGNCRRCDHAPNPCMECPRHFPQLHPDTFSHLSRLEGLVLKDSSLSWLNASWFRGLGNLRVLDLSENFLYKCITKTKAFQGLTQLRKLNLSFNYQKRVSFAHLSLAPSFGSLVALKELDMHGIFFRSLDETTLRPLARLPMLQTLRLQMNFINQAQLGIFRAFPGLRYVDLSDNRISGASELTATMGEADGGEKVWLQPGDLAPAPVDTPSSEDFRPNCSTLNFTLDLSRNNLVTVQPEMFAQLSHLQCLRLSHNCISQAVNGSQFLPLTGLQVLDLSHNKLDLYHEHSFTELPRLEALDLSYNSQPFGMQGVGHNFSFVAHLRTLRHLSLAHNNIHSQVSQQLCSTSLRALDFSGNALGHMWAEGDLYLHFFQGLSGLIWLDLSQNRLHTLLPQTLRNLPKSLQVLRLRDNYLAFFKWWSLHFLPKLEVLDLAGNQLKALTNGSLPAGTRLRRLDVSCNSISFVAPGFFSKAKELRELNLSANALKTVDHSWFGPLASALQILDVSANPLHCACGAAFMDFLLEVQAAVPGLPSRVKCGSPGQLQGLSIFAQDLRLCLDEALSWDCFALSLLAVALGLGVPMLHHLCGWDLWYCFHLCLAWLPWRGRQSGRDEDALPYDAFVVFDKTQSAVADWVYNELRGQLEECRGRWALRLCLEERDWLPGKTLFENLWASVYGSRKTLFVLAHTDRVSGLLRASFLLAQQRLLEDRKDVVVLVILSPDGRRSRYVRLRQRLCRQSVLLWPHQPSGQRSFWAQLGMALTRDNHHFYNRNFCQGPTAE
Description: TLR9 inhibition reporter assay (HEK-Blue cells, SEAP reporter). The format is cell-based. The note with it: HEK-Blue cells overexpressing human TLR9, stimulated with ODN2006 5 nM, 22 hour incubation. Put shortly: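 HEK-Blue cells overexpressing human TLR9 (25,000 cells/well), NF-κB/AP-1-driven SEAP reporter. Compounds at 0.05 nM–50 μM final, 22 h at 37 °C, 5% CO2 with agonist. SEAP detected with HEK-Blue Detection medium; % inhibition versus agonist plus DMSO and known-inhibitor wells.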

On to `CCOC(=O)N1CCC(N2CCC(c3cc4c(-c5ccc(OC)c(OC)c5)c(C)n(C)c4cn3)CC2)CC1` [Example 20, ethyl 4-(3-(3,4-dimethoxyphenyl)-1,2-dimethyl-1H-pyrrolo[2,3-c]pyridin-5-yl)-[1,4′-bipiperidine]-1′-carboxylate], for which the IC50 at human TLR7 was 9200 nM; against human TLR9, 153 nM.
The matching figures for `COc1ccc(-c2c(C)[nH]c3cnc(C4CCN(C(=O)CN5CCCC5)CC4)cc23)cc1OC` [Example 21, 1-(4-(3-(3,4-dimethoxyphenyl)-2-methyl-1H-pyrrolo[2,3-c]pyridin-5-yl)piperidin-1-yl)-2-(pyrrolidin-1-yl)ethan-1-one]: 26000 nM and 603 nM.
In the same order, the values of `COc1ccc(-c2c(C)[nH]c3cnc(C4CCN(C(=O)CN(C)C)CC4)cc23)cc1OC` [Example 22, 1-(4-(3-(3,4-dimethoxyphenyl)-2-methyl-1H-pyrrolo[2,3-c]pyridin-5-yl)piperidin-1-yl)-2-(dimethylamino)ethan-1-one] are 9700 nM and 1570 nM.
As to `COc1ccc(-c2c(C)[nH]c3cnc(C4CCN(C(=O)CCN5CCCC5)CC4)cc23)cc1OC` [Example 23, 1-(4-(3-(3,4-dimethoxyphenyl)-2-methyl-1H-pyrrolo[2,3-c]pyridin-5-yl)piperidin-1-yl)-3-(pyrrolidin-1-yl)propan-1-one], the IC50 at human TLR7 was greater than 50000 nM; at human TLR9, 1110 nM.
With `COc1ccc(-c2cc3cnc(-c4ccc(N5CCN(C(C)C)CC5)cc4)cc3n2C)cc1OC` [Example 24, 2-(3,4-dimethoxyphenyl)-6-(4-(4-isopropylpiperazin-1-yl)phenyl)-1-methyl-1H-pyrrolo[3,2-c]pyridine], the values for the 50% inhibitory concentration (IC50) at human TLR7 and against human TLR9 were 3200 nM and 59 nM, respectively.
In the same order, the values of `COc1ccc(-c2cc3cnc(C4CCN(C(=O)CN5CCCCC5)CC4)cc3n2C)cc1OC` [Example 25, 1-(4-(2-(3,4-dimethoxyphenyl)-1-methyl-1H-pyrrolo[3,2-c]pyridin-6-yl)piperidin-1-yl)-2-(piperidin-1-yl)ethan-1-one] are 4500 nM and 197 nM.
As for `COc1ccc(-c2cc3cnc(C4CCN(C5CCN(C(=O)c6ccccc6)CC5)CC4)cc3n2C)cc1OC` [Example 26, (4-(2-(3,4-dimethoxyphenyl)-1-methyl-1H-pyrrolo[3,2-c]pyridin-6-yl)-[1,4′-bipiperidin]-1′-yl)(phenyl)methanone], the figures for the IC50 against human TLR7 and against human TLR9 were 7300 nM and 9 nM, respectively.
The matching figures for `COc1ccc(-c2cc3cnc(-c4ccc(N5CCN(C)CC5)cc4)cc3n2C)cc1OC` [Example 27, 2-(3,4-dimethoxyphenyl)-1-methyl-6-(4-(4-methylpiperazin-1-yl)phenyl)-1H-pyrrolo[3,2-c]pyridine]: 2600 nM and 45 nM.
Turning to `COc1ccc(-c2cc3cnc(C4CCN(Cc5ccc(C(F)(F)F)nc5)CC4)cc3n2C)cc1OC` [Example 28, 2-(3,4-dimethoxyphenyl)-1-methyl-6-(1-((6-(trifluoromethyl)pyridin-3-yl)methyl)piperidin-4-yl)-1H-pyrrolo[3,2-c]pyridine], the half-inhibitory concentration (IC50) is greater than 50000 nM at human TLR7 and 269 nM on human TLR9.
The matching figures for `COc1ccc(-c2cc3cnc(-c4ccc(N5CCN(C(=O)c6ccccc6)CC5)cc4)cc3n2C)cc1OC` [Example 29, (4-(4-(2-(3,4-dimethoxyphenyl)-1-methyl-1H-pyrrolo[3,2-c]pyridin-6-yl)phenyl)piperazin-1-yl)(phenyl)methanone]: 14400 nM and 399 nM.
Consider `COc1ccc(-c2cc3cnc(-c4ccc(N5CCN(C(C)C)CC5)nc4)cc3n2C)cc1OC` [Example 31, 2-(3,4-dimethoxyphenyl)-6-(6-(4-isopropylpiperazin-1-yl)pyridin-3-yl)-1-methyl-1H-pyrrolo[3,2-c]pyridine], for which the results for the IC50 against human TLR7 and against human TLR9 were 1500 nM and 72 nM, respectively.
